Laboratory results from PMC10544029, “Design, Synthesis, and Application of Fluorescent Ligands Targeting the Intracellular Allosteric Binding Site of the CXC Chemokine Receptor 2” (Journal of Medicinal Chemistry, 2023).

Experiments:
CXCR1 = molecular target: T1, CXCR1 (Homo sapiens, UniProt P25024); assay: CXCR1-NanoLuc NanoBRET saturation binding in membranes; conditions: result in words
T1 construct: expressed in transfected cells; membranes
T1 sequence (P25024 1-350): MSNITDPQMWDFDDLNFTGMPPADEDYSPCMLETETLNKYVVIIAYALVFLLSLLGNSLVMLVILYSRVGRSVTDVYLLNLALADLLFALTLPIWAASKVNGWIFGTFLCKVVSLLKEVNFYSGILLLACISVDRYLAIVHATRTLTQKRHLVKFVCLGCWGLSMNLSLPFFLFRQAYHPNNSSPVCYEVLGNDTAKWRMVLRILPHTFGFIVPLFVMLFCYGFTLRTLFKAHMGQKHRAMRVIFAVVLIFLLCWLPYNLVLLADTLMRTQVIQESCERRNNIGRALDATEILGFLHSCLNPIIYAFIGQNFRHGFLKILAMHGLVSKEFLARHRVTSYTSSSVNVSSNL
Procedure: NanoBRET assays were carried out in OptiPlate-384 white well microplates (product number: 6007290, PerkinElmer LAS Ltd., UK) and used 25 mM HEPES, 1% DMSO, 0.1 mg/mL Saponin, 0.2 mg Pluronic acid F127, 1 mM MgCl2 and 0.1% BSA (pH 7.4) assay buffer. Both saturation and competition assays employed 1 μg/well HEK 293 SNAP-CXCR2-NanoLuc or SNAP-CXCR1-NanoLuc cell membranes for characterization of fluorescent ligand binding and employed 100 nM or 10 μM R-navarixin (2) to define non-specific binding (NSB). […] Membranes were incubated with furimazine at a 1/660 dilution for 5 min prior to addition to the assay plate, allowing for equilibration of luminescence output. NanoBRET was monitored every 15 s for 60 min at 37 °C measuring Nanoluciferase output (450 nm) and BODIPY 630–650 output (630 nm [610-LP filter]), generating a BRET ratio (630 nm/450 nm), using a BMG PHERAstar FS (BMG Labtech). Collected data was converted to specific binding measurements through subtraction of NSB data and analyzed by endpoint saturation analysis, allowing determination of ligand dissociation constant (KD) through [drawing 1] 1

[1] = test system: SNAP-tagged CXCR2-tsNanoLuc HEK293; assay: Live cell imaging of fluorescent ligand binding to SNAP-tagged CXCR2-tsNanoLuc HEK293; type: cell-based, human; conditions: 1 μM 11a, 10 min at 37 °C, specific, displaced by 10 μM 2
Procedure: HEK 293 cells expressing SNAP-CXCR2-tsNanoLuc were seeded on black, clear bottom, poly-D-lysine-coated 96-well plates (Greiner 655097) at a density of 30,000 cells/well and allowed to grow overnight. Post-incubation, growth media were replaced with Hepes balances salt solution supplemented with 0.1% BSA (HBSS +0.1% BSA), 0.1 μM SNAP-surface AF488, 2 μg/mL Hoechst 33342 nuclear stain (H33342), and either HBSS +0.1% BSA or 10 μM (R)-navarixin (2).

[2] = Chemical stability on purification and isolation; type: physicochemical; conditions: purification by normal and reverse-phase chromatography

chemical stability [2] | Compound | CXCR1 specific binding (CXCR1) | fluorescent labelling of cells [1]
 | CC[C@@H](Nc1c(Nc2cccc(C(=O)NCCNC(=O)CCNC(=O)CCCCCNC(=O)COc3ccc(/C=C/C4=[N+]5C(=Cc6ccc(-c7cccs7)n6[B-]5(F)F)C=C4)cc3)c2O)c(=O)c1=O)c1ccc(C)o1 [11e, (R,E)-N-(2-(3-(6-(2-(4-(2-(5,5-Difluoro-7-(thiophen-2-yl)-5H-4λ4,5λ4-dipyrrolo[1,2-c:2′,1′-f][1,3,2]diazaborinin-3-yl)vinyl)phenoxy)acetamido)hexanamido)propanamido)ethyl)-2-hydroxy-3-((2-((1-(5-methylfuran-2-yl)propyl)amino)-3,4-dioxocyclobut-1-en-1-yl)amino)benzamide] | no CXCR1 specific binding | 
 | CC[C@@H](Nc1c(Nc2cccc(C(=O)NCCNC(=O)CNC(=O)CCCCCNC(=O)COc3ccc(/C=C/C4=[N+]5C(=Cc6ccc(-c7cccs7)n6[B-]5(F)F)C=C4)cc3)c2O)c(=O)c1=O)c1ccc(C)o1 [11c, (R,E)-N-(2-(2-(6-(2-(4-(2-(5,5-Difluoro-7-(thiophen-2-yl)-5H-4λ4,5λ4-dipyrrolo[1,2-c:2′,1′-f][1,3,2]diazaborinin-3-yl)vinyl)phenoxy)acetamido)hexanamido)acetamido)ethyl)-2-hydroxy-3-((2-((1-(5-methylfuran-2-yl)propyl)amino)-3,4-dioxocyclobut-1-en-1-yl)amino)benzamide] | no CXCR1 specific binding | 
 | CC[C@@H](Nc1c(Nc2cccc(C(=O)NCCNC(=O)CCCCCNC(=O)COc3ccc(/C=C/C4=[N+]5C(=Cc6ccc(-c7cccs7)n6[B-]5(F)F)C=C4)cc3)c2O)c(=O)c1=O)c1ccc(C)o1 [11a, (R,E)-N-(2-(6-(2-(4-(2-(5,5-Difluoro-7-(thiophen-2-yl)-5H-4λ4,5λ4-dipyrrolo[1,2-c:2’,1’-f][1,3,2]diazaborinin-3-yl)vinyl)phenoxy)acetamido)hexanamido)ethyl)-2-hydroxy-3-((2-((1-(5-methylfuran-2-yl)propyl)amino)-3,4-dioxocyclobut-1-en-1-yl)amino)benzamide] | no CXCR1 specific binding | both cell surface and intracellular endosomal fluorescent labelling
chemically unstable | CC[C@@H](Nc1c(Nc2cccc(C(=O)N(C)CCNC(=O)OCC3c4ccccc4-c4ccccc43)c2O)c(=O)c1=O)c1ccc(C)o1 [10b, (9H-Fluoren-9-yl)methyl(R)-(2-(2-hydroxy-N-methyl-3-((2-((1-(5-methylfuran-2-yl)propyl)amino)-3,4-dioxocyclobut-1-en-1-yl)amino)benzamido)ethyl)carbamate] |  | 
